Data published in publication PMC3850062 (Virology, 2013).

Target: T1, gp16 (eGFP-gp16), phi29 DNA packaging motor ATPase (Bacillus phage phi29, UniProt P11014)
T1 sequence (P11014 1-332): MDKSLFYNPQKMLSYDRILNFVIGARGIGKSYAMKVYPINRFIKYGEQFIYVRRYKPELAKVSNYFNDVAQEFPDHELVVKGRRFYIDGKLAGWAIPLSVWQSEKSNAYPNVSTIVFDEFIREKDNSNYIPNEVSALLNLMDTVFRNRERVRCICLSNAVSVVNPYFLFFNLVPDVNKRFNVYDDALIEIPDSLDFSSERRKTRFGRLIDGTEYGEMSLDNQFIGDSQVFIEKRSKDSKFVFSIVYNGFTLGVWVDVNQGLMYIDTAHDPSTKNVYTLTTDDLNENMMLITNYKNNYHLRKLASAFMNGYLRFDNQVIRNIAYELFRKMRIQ
Settings: without and with saturating dsDNA

Nc1ncnc2c1ncn2[C@@H]1O[C@H](COP(=O)(O)OP(=O)(O)OP(=O)(O)O)[C@@H](O)[C@H]1O [ATP]
fluorescence ATPase assay: each subunit of gp16 is able to hydrolyze ATP independently
